Results published in ChEMBL document CHEMBL1146014, “Design and synthesis of selective alpha1B adrenoceptor antagonists” (Bioorg Med Chem Lett, 2006).

Key:
[1] = target: T1, Alpha-1A adrenergic receptor (Rattus norvegicus, UniProt P43140); assay: Displacement of [3H]prazosin from adrenergic alpha-1A receptor in rat submaxillary gland membranes; assay type: cell membranes, Membrane
T1 sequence (P43140 whole entry): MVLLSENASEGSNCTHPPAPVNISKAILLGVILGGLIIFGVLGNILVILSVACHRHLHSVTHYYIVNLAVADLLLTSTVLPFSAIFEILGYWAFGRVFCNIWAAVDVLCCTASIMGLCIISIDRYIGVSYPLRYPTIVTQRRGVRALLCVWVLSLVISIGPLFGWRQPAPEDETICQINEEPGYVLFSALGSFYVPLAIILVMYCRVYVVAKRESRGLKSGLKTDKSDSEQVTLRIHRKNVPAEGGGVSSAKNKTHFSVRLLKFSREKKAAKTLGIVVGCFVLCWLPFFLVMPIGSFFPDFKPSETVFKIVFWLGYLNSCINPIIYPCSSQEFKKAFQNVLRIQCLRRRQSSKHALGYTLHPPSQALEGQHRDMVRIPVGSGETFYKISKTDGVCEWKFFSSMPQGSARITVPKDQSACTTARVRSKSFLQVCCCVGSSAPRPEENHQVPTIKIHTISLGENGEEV

[2] = target: T2, Alpha-1B adrenergic receptor (Rattus norvegicus, UniProt P15823); assay: Displacement of [3H]prazosin from adrenergic alpha-1B receptor in rat liver membranes; assay type: cell membranes, Membrane
T2 sequence (P15823 whole entry): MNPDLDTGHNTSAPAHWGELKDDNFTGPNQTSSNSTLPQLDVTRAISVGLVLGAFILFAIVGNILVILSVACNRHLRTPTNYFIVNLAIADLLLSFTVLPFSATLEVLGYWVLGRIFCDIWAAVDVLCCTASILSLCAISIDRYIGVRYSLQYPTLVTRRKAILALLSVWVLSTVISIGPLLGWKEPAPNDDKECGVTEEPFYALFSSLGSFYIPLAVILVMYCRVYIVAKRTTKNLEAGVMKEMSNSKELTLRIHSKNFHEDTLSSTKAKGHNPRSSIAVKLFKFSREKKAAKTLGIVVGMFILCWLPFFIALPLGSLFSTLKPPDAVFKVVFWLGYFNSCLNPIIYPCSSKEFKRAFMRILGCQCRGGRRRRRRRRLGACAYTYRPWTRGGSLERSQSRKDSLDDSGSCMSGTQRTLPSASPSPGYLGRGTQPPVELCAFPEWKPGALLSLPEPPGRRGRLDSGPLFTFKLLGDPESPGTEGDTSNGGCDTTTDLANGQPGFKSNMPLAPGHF

[3] = target: Adrenergic receptor beta (Rattus norvegicus, UniProt P18090+P10608+P26255); assay: Binding affinity to rat adrenergic beta receptor; assay type: protein assay
[4] = target: T3, Alpha-1D adrenergic receptor (Homo sapiens, UniProt P25100); assay: Binding affinity to human adrenergic Alpha-1D receptor
T3 sequence (P25100 whole entry): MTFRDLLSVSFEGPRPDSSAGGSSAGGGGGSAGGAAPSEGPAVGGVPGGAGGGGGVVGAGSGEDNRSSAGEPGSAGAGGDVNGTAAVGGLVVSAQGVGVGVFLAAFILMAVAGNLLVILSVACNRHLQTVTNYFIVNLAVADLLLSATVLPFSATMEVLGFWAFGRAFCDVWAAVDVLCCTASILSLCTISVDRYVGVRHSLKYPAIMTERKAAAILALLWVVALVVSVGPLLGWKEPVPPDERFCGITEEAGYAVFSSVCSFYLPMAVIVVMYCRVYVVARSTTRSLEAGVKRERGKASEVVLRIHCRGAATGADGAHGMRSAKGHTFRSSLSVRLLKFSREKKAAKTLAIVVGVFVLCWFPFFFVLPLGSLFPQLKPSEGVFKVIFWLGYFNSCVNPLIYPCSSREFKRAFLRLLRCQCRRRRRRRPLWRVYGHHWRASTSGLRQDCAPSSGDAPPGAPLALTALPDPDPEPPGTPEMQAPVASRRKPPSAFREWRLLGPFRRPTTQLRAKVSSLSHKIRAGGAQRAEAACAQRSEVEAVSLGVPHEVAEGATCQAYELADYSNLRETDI

[5] = target: T4, Adrenergic receptor alpha-2 (Rattus norvegicus, UniProt P22086+P19328+P22909); assay: Binding affinity to rat adrenergic alpha2 receptor; assay type: protein assay
T4 sequence (P22086 whole entry): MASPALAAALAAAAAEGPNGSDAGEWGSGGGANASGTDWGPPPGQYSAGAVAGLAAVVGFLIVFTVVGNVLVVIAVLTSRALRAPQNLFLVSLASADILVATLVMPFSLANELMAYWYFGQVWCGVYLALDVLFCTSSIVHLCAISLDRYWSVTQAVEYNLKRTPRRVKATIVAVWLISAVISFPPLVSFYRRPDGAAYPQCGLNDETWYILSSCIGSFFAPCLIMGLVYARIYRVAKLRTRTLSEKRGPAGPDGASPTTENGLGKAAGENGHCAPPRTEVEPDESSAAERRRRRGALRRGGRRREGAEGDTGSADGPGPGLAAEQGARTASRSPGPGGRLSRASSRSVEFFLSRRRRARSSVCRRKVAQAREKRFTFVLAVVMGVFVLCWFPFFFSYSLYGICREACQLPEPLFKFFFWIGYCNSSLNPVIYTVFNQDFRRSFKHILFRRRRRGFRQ
T4 sequence (P19328 whole entry): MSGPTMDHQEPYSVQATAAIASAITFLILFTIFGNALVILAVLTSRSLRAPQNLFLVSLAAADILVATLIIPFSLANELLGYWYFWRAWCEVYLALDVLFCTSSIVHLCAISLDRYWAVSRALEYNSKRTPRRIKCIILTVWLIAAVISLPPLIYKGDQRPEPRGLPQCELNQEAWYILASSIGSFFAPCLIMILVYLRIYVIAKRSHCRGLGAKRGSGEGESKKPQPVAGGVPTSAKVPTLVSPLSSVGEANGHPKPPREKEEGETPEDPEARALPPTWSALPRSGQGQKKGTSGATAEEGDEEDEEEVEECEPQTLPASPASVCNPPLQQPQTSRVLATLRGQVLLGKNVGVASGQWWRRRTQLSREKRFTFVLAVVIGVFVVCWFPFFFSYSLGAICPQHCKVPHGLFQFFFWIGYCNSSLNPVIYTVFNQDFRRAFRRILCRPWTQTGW
T4 sequence (P22909 whole entry): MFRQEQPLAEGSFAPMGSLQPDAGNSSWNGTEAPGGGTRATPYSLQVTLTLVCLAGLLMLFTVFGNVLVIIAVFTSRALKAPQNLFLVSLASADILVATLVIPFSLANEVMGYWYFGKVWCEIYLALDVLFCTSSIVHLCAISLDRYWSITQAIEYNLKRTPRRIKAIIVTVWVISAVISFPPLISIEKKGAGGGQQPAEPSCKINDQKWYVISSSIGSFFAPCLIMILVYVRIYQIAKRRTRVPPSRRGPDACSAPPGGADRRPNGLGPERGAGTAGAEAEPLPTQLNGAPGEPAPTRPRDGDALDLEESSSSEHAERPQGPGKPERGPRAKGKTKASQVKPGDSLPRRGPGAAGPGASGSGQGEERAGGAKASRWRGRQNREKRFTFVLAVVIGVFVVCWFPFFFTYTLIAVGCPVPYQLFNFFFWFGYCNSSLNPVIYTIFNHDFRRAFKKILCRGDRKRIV

Compound | Ki [1] [µM] | Ki [2] [µM] | Ki [3] [µM] | Ki [4] [µM] | Ki [5] [µM]
c1ccc2c(C3CCN(CCCN4CCCCC4)CC3)coc2c1 | 0.06 | 0.0077 |  |  | 
Oc1nc2ccccc2n1C1CCN(CCCN2CCCCC2)CC1 | 0.9 | 0.07 |  |  | 
c1ccc(CC2CCN(CCCN3CCCCC3)CC2)cc1 |  | 1.12 |  |  | 
c1ccc2c(C3CCN(CCCCN4CCCCC4)CC3)c[nH]c2c1 | 0.056 | 0.0011 |  |  | 
Cn1cc(C2CCN(CCCN3CCCCC3)CC2)c2ccccc21 | 0.48 | 0.06 |  |  | 
Fc1ccc2[nH]cc(C3CCN(CCCN4CCCCC4)CC3)c2c1 | 0.69 | 0.016 |  |  | 
Cl.Cl.c1ccc2c(C3CCN(CCCN4CCCCC4)CC3)c[nH]c2c1 | 0.12 | 0.003 | > 1 | 0.069 | 0.37
Cc1[nH]c2ccccc2c1C1CCN(CCCN2CCCCC2)CC1 | 1.9 | 0.071 |  |  | 
Cl.Cl.Fc1ccc2c(C3CCN(CCCN4CCCCC4)CC3)c[nH]c2c1 |  |  | > 1 | 0.022 | 0.14
c1ccc2c(C3CCN(CCCN4CCCCC4)CC3)noc2c1 | 0.057 | 0.014 |  |  | 
Cl.Cl.c1ccc2c(C3CCN(CCCCCN4CCCCC4)CC3)c[nH]c2c1 |  |  | > 1 | 0.037 | 0.355
